“Also recorded” adds a separate entry of the source.
Key:
mt-Keima mice = assay: Echocardiographic analysis; format: in vivo, mouse; conditions: 25 mg/kg/day i.p. for 5 days, vs vehicle
Procedure: The mt-Keima mouse. ST-539 was dissolved into 1% DMSO in Sesame oil and injected intraperitoneally (i.p.) at doses of 25 mg/kg/day with five total doses. Both male and female mice were used in this study. The control group received vehicle only. Echocardiographic measurements were taken using a Vevo3100 Visual Sonics (Visual Sonics) system. The mice were lightly anesthetized with isoflurane and the ejection fraction, fractional shortening, and ventricular chamber dimensions were determined using 2-D-guided M mode images. Ejection fraction, fractional shortening, ventricular chamber dimensions, and left ventricular mass were calculated automatically using the VevoLAB program. All experiments involving animals were approved by the Institutional Animal Care and Use Committee at The Ohio State University.

USP30 = conditions: in vitro; compound and similar structures; cited from earlier work
HeLa cells = assay: Mitophagy inducer screen by TOM20 turnover; format: cell-based; conditions: cellular TOM20 turnover assay
Procedure: The enzymatic activity of Parkin is to function as an E3 ubiquitin ligase. […] To investigate TOM20 ubiquitination during mitophagy, we treated HeLa cells stably expressing YFP-Parkin (Hela-Parkin) for up to 18 h with both the mitochondrial complex III inhibitor antimycin A and the ATP synthase inhibitor oligomycin (antimycin A/oligomycin/[A/O]; FIG. 1A). […] A/O treatment also results in a decline in the abundance of the OMM protein TOM40 and the inner mitochondrial protein TIM23 (FIG. 1A). […] In this context, increased expression of USP30 blocked the accumulation of ubiquitinated TOM20 and prevented the destruction of this outer mitochondrial protein, as well as TOM40 and TIM23, after A/O treatment (FIG. 1A). We then employed this cellular assay to monitor TOM20 turnover, and analyzed compounds known to be associated with the ubiquitination process for inhibitors of USP30. […] We defined the effects of this chemical using biochemical assays. […] Initially to assess mitophagy in cells, we monitored the degradation of the inner membrane protein, the translocase of the inner membrane 23 (TIM23), by immunoblotting (FIG. 5A). […] USP30's overexpression prevented a reduction in TIM23 and TOM40 levels.

LC3-II/LC3-I = assay: LC3 I/II immunoblotting of heart tissue; format: in vivo, mice; conditions: 25 mg/kg/day i.p. for 5 days
Procedure: Cells were lysed in RIPA buffer (50 mM Tris-HCl, at pH 8.0; 150 mM NaCl; 1% (vol/vol) Nonidet P-40; 0.5% sodium deoxycholate, 0.1% SDS and protease inhibitor cocktail (Roche)) on ice. Primary antibodies were used at the following concentrations: USP30 (Santa Cruz, sc-515235, 1:200); TOM20 (Cell Signaling Technology, 42406S, 1:1000); TOM40 (Proteintech, 18409-1-AP, 1:1000); NDP52 (Cell Signaling Technology, 60732S, 1:1000); TIM23 (Proteintech, 11123-1-AP, 1:500); LC3A/B (Cell Signaling Technology, 4108S, 1:1000); GAPDH (Cell Signaling Technology, 5175S, 1:1000); PINK1 (Cell Signaling Technology, 6946S, 1:1000); ACTIN (Cell Signaling Technology, 3700S, 1:1000). The membranes were incubated with anti-rabbit (LI-COR, 926-32211, 1:15000) or anti-mouse (LI-COR, 926-68072, 1:15000) IgG secondary antibodies for 1 h at room temperature. Images were captured using the Odyssey system (LI-Cor). One representative blot is shown of three independent experiments.
The mt-Keima mouse. […] The mice were lightly anesthetized with isoflurane and the ejection fraction, fractional shortening, and ventricular chamber dimensions were determined using 2-D-guided M mode images. Ejection fraction, fractional shortening, ventricular chamber dimensions, and left ventricular mass were calculated automatically using the VevoLAB program. […]

Jurkat T cells = assay: Doxorubicin-induced apoptosis / cell viability, Resazurin assay; format: cell-based; conditions: 48 hours, ST-539 and doxorubicin
[1] = system: HeLa-Parkin cells and HeLa-Parkin cells that express USP30; assay: Mitophagy in cells by mt-Keima fluorescence FACS; format: cell-based
Procedure: HeLa cells and mouse embryonic fibroblasts (MEFs) were grown in Dulbecco's minimum essential medium (DMEM) with 10% fetal bovine serum (FBS) supplemented with penicillin-streptomycin. HeLa Parkin, PINK1 KO cells, WT and MFN2 KO cells were previously described. Cells stably expressing USP30 were generated using lentiviral vectors of pLVX-Puro-Myc-USP30. The USP30 plasmid was obtained from Addgene. The plasmid was transferred into a lentiviral vector and viral particles were prepared by transiently transfecting HEK293T using standard methods. For the drug treatment experiments, cells were incubated in medium containing a mixture of 5 μM oligomycin and 5 μM antimycin A (A/O; see figures for treatment times). In 18 h treatment, A/O were used in combination with 10 μM quinolyl-valyl-O-methylaspartyl-[−2,6-difluorophenoxy]-methyl ketone (QVD), a broad-spectrum caspase inhibitor. ST51000539 (ST-539) was purchased from Tim Tec, Inc. Other chemicals were from Sigma-Aldrich (St. Louis, MO, USA). […]
We employed a sensitive fluorescence-activated cell sorting (FACS)-based method for detecting mitophagy using the pH-dependent fluorescent protein Keima. […] We exploited the mt-Keima probe and measured mitophagy in HeLa-Parkin cells and HeLa-Parkin cells that express USP30. […]

CC(C)(C)NS(=O)(=O)c1cccc2c(NC(=O)C(Cc3ccccc3)NC(=O)c3ccccc3)cccc12 (stereo not shown) [ST-539]
cardiac output (mt-Keima mice): similar; also recorded: does not appear to impact cardiac output
ejection fraction (EF) (mt-Keima mice): similar; also recorded: minimal differences
left ventricular posterior wall thickness (LVPWs) (mt-Keima mice): similar; also recorded: does not appear to impact
USP30 enzyme function inhibition (USP30): selectively inhibit USP30 enzyme function in vitro
potency as mitophagy inducer in screen (HeLa cells): most potent mitophagy inducer
LC3-II/LC3-I ratio in heart (LC3-II/LC3-I): increase in LC3-II/LC3-I ratio
LC3-II level in heart (LC3-II/LC3-I; *p<0.05): increased levels of LC3-II
doxorubicin-induced apoptosis in leukemia (percent cell viability) (Jurkat T cells): potentiates doxorubicin-induced apoptosis in leukemia
A/O induced mitophagy (mt-Keima FACS) ([1]; ST-539 3 μg/ml, HeLa-Parkin cells expressing USP30): restored A/O induced mitophagy
mitophagy in the absence of mitochondrial stress ([1]; cellular studies, ST-539, no stress): minimal change in mitophagy
